Values of other authors, collected in PubChem BioAssay AID1259409 (Chemical Carcinogenesis Research Information System (CCRIS), 2018).

System: rodent chemically induced tumor inhibition, incidence and multiplicity
Test: CCRIS tumor inhibitor studies

S=C=Nc1ccccc1
tumour outcome (control, treated, inhibition, significance) (Carcinogen: 4-(METHYLNITROSAMINO)-1-(3-PYRIDYL)-1-BUTANONE, 64091-91-4, Dose [Inhibitor]: 0, 5 UMOL 1/D FOR 4 D ADMINISTERED PRIOR TO CARCINOGEN DOSE (STUDY DURATION: 116 D), Route [Inhibitor]: GAVAGE, Species: MOUSE, Strain/Sex: STRAIN-A, Target Tissue: Type of Lesion: LUNG: ADENOMA, Dose [Carcinogen]: 10 UMOL IN SALINE ADMINISTERED 2 HR POST LAST AGENT DOSE, Promoter: NONE USED): 100%, 100%, 0% | tumour outcome (control, treated, inhibition, significance) (Carcinogen: 4-(METHYLNITROSAMINO)-1-(3-PYRIDYL)-1-BUTANONE, 64091-91-4, Dose [Inhibitor]: 0, 5 UMOL 1/D FOR 4 D ADMINISTERED PRIOR TO CARCINOGEN TREATMENT (STUDY DURATION: 116 D), Route [Inhibitor]: GAVAGE, Species: MOUSE, Strain/Sex: STRAIN A, Target Tissue: Type of Lesion: LUNG: ADENOMA, Dose [Carcinogen]: 10 UMOL ONCE, 2 HR AFTER FINAL DOSE OF INHIBITOR, Promoter: NONE USED): 100%, 100%, 0%, not significant | tumour outcome (control, treated, inhibition, significance) (Carcinogen: 4-(METHYLNITROSAMINO)-1-(3-PYRIDYL)-1-BUTANONE, 64091-91-4, Dose [Inhibitor]: 0, 5 UMOL/D FOR 4 CONSECUTIVE DAYS (STUDY DURATION: 17 WK), Route [Inhibitor]: GAVAGE, Species: MOUSE, Strain/Sex: STRAIN-A/FEMALE, Target Tissue: Type of Lesion: LUNG: ADENOMA, Dose [Carcinogen]: 10 UMOL ONCE 2 HR POST LAST AGENT DOSE, Promoter: NONE USED): 100%, 100%, 0%, not significant | tumour outcome (control, treated, inhibition, significance) (Carcinogen: 4-(METHYLNITROSAMINO)-1-(3-PYRIDYL)-1-BUTANONE, 64091-91-4, Dose [Inhibitor]: 5 UMOL/D FOR 4 CONSECUTIVE DAYS (STUDY DURATION: 16 WK), Route [Inhibitor]: GAVAGE, Species: MOUSE, Strain/Sex: STRAIN-A/FEMALE, Target Tissue: Type of Lesion: LUNG: ADENOMA, Dose [Carcinogen]: 10 UMOL ONCE 2 HR POST LAST AGENT DOSE, Promoter: NONE USED): 30/30 (100%), 30/30 (100%), 0% | tumour outcome (control, treated, inhibition, significance) (Carcinogen: 4-(N-NITROSOMETHYLAMINO)-1-(3-PYRIDYL)-1-BUTANONE, 64091-91-4, Dose [Inhibitor]: 0, 5 UMOL/D FOR 4 CONSECUTIVE DAYS (STUDY DURATION: 16.5 WK), Route [Inhibitor]: GAVAGE, Species: MOUSE, Strain/Sex: STRAIN-A/FEMALE, Target Tissue: Type of Lesion: LUNG: ADENOMA, Dose [Carcinogen]: 10 UMOL ONCE 2 HR POST LAST AGENT DOSE, Promoter: NONE USED): 100%, 100%, 0%, not significant | tumour outcome (control, treated, inhibition, significance) (Carcinogen: 7,12-DIMETHYLBENZ[A]ANTHRACENE, 57-97-6, Dose [Inhibitor]: 23 MG ONCE 4 HR PRIOR TO CARCINOGEN DOSE (STUDY DURATION: 18 WK), Route [Inhibitor]: INTRAGASTRIC, Species: RAT, Strain/Sex: SPRAGUE-DAWLEY/FEMALE, Target Tissue: Type of Lesion: MAMMARY GLAND: TUMOR, Dose [Carcinogen]: 12 MG IN 1 ML OLIVE OIL AT AGE 7 WK, Promoter: NONE USED): 86%, 46%, 46%, p<0.05

CC1(S(=O)(=O)O)CC(=O)c2ccccc2C1=O (centres undefined)
tumour outcome (control, treated, inhibition, significance) (Carcinogen: 1,2-DIMETHYLHYDRAZINE, 540-73-8, Dose [Inhibitor]: 0, 20 MG/KG 3/WK FOR 24 WK BEGINNING FIRST WK OF CARCINOGEN TREATMENT (STUDY DURATION: 28 WK), Route [Inhibitor]: GAVAGE, Species: MOUSE, Strain/Sex: ICR/FEMALE, Target Tissue: Type of Lesion: COLON: TUMOR, Dose [Carcinogen]: 20 MG/KG 1/WK FOR 20 WK, Promoter: NONE USED): 9/13 (69%), 4/13 (31%), 55%, p<0.05 | tumour outcome (control, treated, inhibition, significance) (Carcinogen: 1,2-DIMETHYLHYDRAZINE, 540-73-8, Dose [Inhibitor]: 0, 20 MG/KG 3/WK FOR 28 WK BEGINNING FIRST WK OF CARCINOGEN TREATMENT (STUDY DURATION: 28 WK), Route [Inhibitor]: GAVAGE, Species: MOUSE, Strain/Sex: ICR/FEMALE, Target Tissue: Type of Lesion: COLON: TUMOR, Dose [Carcinogen]: 20 MG/KG 1/WK FOR 20 WK, Promoter: NONE USED): 13/13 (100%), 8/13 (62%), 38%, p<0.05 | tumour outcome (control, treated, inhibition, significance) (Carcinogen: 1,2-DIMETHYLHYDRAZINE, 540-73-8, Dose [Inhibitor]: 0, 40 MG/KG 3/WK FOR 24 WK BEGINNING FIRST WK OF CARCINOGEN TREATMENT (STUDY DURATION: 28 WK), Route [Inhibitor]: GAVAGE, Species: MOUSE, Strain/Sex: ICR/FEMALE, Target Tissue: Type of Lesion: COLON: TUMOR, Dose [Carcinogen]: 20 MG/KG 1/WK FOR 20 WK, Promoter: NONE USED): 9/13 (69%), 4/13 (31%), 55%, p<0.05 | tumour outcome (control, treated, inhibition, significance) (Carcinogen: 1,2-DIMETHYLHYDRAZINE, 540-73-8, Dose [Inhibitor]: 0, 40 MG/KG 3/WK FOR 28 WK BEGINNING FIRST WK OF CARCINOGEN TREATMENT (STUDY DURATION: 28 WK), Route [Inhibitor]: GAVAGE, Species: MOUSE, Strain/Sex: ICR/FEMALE, Target Tissue: Type of Lesion: COLON: TUMOR, Dose [Carcinogen]: 20 MG/KG 1/WK FOR 20 WK, Promoter: NONE USED): 13/13 (100%), 8/13 (62%), 38%, p<0.05

COc1cc([C@@H]2Oc3cc([C@H]4Oc5cc(O)cc(O)c5C(=O)[C@@H]4O)ccc3O[C@H]2CO)ccc1O
tumour outcome (control, treated, inhibition, significance) (Carcinogen: 1,2-DIMETHYLHYDRAZINE, 540-73-8, Dose [Inhibitor]: 0, 0.1% IN DIET FOR 32 WK BEGINNING AT 24 D OF AGE (STUDY DURATION: 32 WK), Route [Inhibitor]: ORAL, Species: RAT, Strain/Sex: SPRAGUE-DAWLEY/MALE, Target Tissue: Type of Lesion: COLON: ADENOCARCINOMA, Dose [Carcinogen]: 20 MG/KG 1/WK FOR 15 WK BEGINNING ON D 37, Promoter: NONE USED): 19/22 (86%), 11/16 (69%), 20%, not calculated | tumour outcome (control, treated, inhibition, significance) (Carcinogen: 1,2-DIMETHYLHYDRAZINE, 540-73-8, Dose [Inhibitor]: 0, 0.1% IN DIET FOR 32 WK BEGINNING AT 24 D OF AGE (STUDY DURATION: 32 WK), Route [Inhibitor]: ORAL, Species: RAT, Strain/Sex: SPRAGUE-DAWLEY/MALE, Target Tissue: Type of Lesion: SMALL INTESTINE: ADENOCARCINOMA, Dose [Carcinogen]: 20 MG/KG 1/WK FOR 15 WK BEGINNING ON D 37, Promoter: NONE USED): 18/22 (82%), 9/16 (56%), 32%, not calculated | tumour outcome (control, treated, inhibition, significance) (Carcinogen: N-BUTYL-N-(4-HYDROXYBUTYL)NITROSAMINE, 3817-11-6, Dose [Inhibitor]: 0, 1000 PPM IN DIET FOR 8 WK (STUDY DURATION: 32 WK), Route [Inhibitor]: ORAL, Species: MOUSE, Strain/Sex: ICR/MALE, Target Tissue: Type of Lesion: URINARY BLADDER: PAPILLOMA, Dose [Carcinogen]: 500 PPM IN DRINKING WATER FOR 6 WK BEGINNING 1 WK AFTER FIRST INHIBITOR DOSE, Promoter: NONE USED): 2/44 (5%), 1/34 (3%), 40%, not significant | tumour outcome (control, treated, inhibition, significance) (Carcinogen: N-BUTYL-N-(4-HYDROXYBUTYL)NITROSAMINE, 3817-11-6, Dose [Inhibitor]: 0, 1000 PPM IN DIET FOR 8 WK (STUDY DURATION: 32 WK), Route [Inhibitor]: ORAL, Species: MOUSE, Strain/Sex: ICR/MALE, Target Tissue: Type of Lesion: URINARY BLADDER: TRANSITIONAL CELL CARCINOMA, Dose [Carcinogen]: 500 PPM IN DRINKING WATER FOR 6 WK BEGINNING 1 WK AFTER FIRST INHIBITOR DOSE, Promoter: NONE USED): 17/44 (39%), 4/34 (12%), 69%, p< 0.01 | outcome (Carcinogen: N-BUTYL-N-(4-HYDROXYBUTYL)NITROSAMINE, 3817-11-6, Dose [Inhibitor]: 0, 1000 PPM IN DIET FOR 24 WK BEGINNING 1 WK POST FINAL CARCINOGEN DOSE (STUDY DURATION: 32 WK), Route [Inhibitor]: ORAL, Species: MOUSE, Strain/Sex: ICR/MALE, Target Tissue: Type of Lesion: URINARY BLADDER: PAPILLOMA, Dose [Carcinogen]: 500 PPM IN DRINKING WATER FOR 6 WK BEGINNING 1 WK AFTER FIRST INHIBITOR DOSE, Promoter: NONE USED): 2/44 (5), 5/30 (17%), -240%, not significant | tumour outcome (control, treated, inhibition, significance) (Carcinogen: N-BUTYL-N-(4-HYDROXYBUTYL)NITROSAMINE, 3817-11-6, Dose [Inhibitor]: 0, 1000 PPM IN DIET FOR 24 WK BEGINNING 1 WK POST FINAL CARCINOGEN DOSE (STUDY DURATION: 32 WK), Route [Inhibitor]: ORAL, Species: MOUSE, Strain/Sex: ICR/MALE, Target Tissue: Type of Lesion: URINARY BLADDER: TRANSITIONAL CELL CARCINOMA, Dose [Carcinogen]: 500 PPM IN DRINKING WATER FOR 6 WK BEGINNING 1 WK AFTER FIRST INHIBITOR DOSE, Promoter: NONE USED): 17/44 (39%), 5/30 (17%), 56%, p< 0.05 | outcome (Carcinogen: N-Butyl-N-(4-hydroxybutyl)nitrosamine, 3817-11-6, Dose [Inhibitor]: 200 mg/kg bw 1 wk before carcinogen, dose duration 51 wk, study duration 56 wk, Route [Inhibitor]: Oral (gavage) 5 d/wk, Species: Mouse, Strain/Sex: ICR/Male, Target Tissue: Type of Lesion: Urinary Bladder: carcinoma, Dose [Carcinogen]: 0, 0.5% in drinking water for 6 wk, Promoter: None): 52%, 7.7%, p=0.001

N#C[SeH]
tumour outcome (control, treated, inhibition, significance) (Carcinogen: 7,12-DIMETHYLBENZ[A]ANTHRACENE, 57-97-6, Dose [Inhibitor]: 0, 2 PPM (AS SELENIUM) IN DIET BEGINNING 2 WK PRIOR TO CARCINOGEN DOSE AND CONTINUING FOR DURATION OF STUDY (STUDY DURAT, Route [Inhibitor]: ORAL, Species: RAT, Strain/Sex: SPRAGUE-DAWLEY/FEMALE, Target Tissue: Type of Lesion: MAMMARY GLAND: ADENOCARCINOMA, Dose [Carcinogen]: 10 MG ONCE AT 55 D OF AGE, Promoter: NONE USED): 88%, 68%, 23%, not significant | tumour outcome (control, treated, inhibition, significance) (Carcinogen: 7,12-DIMETHYLBENZ[A]ANTHRACENE, 57-97-6, Dose [Inhibitor]: 0, 3 PPM (AS SELENIUM) IN DIET BEGINNING 2 WK PRIOR TO CARCINOGEN DOSE AND CONTINUING FOR DURATION OF STUDY (STUDY DURAT, Route [Inhibitor]: ORAL, Species: RAT, Strain/Sex: SPRAGUE-DAWLEY/FEMALE, Target Tissue: Type of Lesion: MAMMARY GLAND: ADENOCARCINOMA, Dose [Carcinogen]: 10 MG ONCE AT 55 D OF AGE, Promoter: NONE USED): 88%, 44%, 50%, p<0.05
